Test results from the NIST ThermoML archive (doi:10.1021/je800756r).
“And” between values parts separate entries of the source, which are not always exact repeats. Equal entries are not always repeated. ± gives the expanded uncertainty stated by the source.

Experiment: xn = mol fraction of the nth substance listed
Details: Capillary rise

FCF [difluoromethane] + CCC
Details	surface tension liquid-gas
280 K, x2 = 0.01	9.7 ± 0.4 mN/m
280 K, x2 = 0.013	9.4 ± 0.4 mN/m
280 K, x2 = 0.037	9.5 ± 0.4 mN/m
280 K, x2 = 0.07	9 ± 0.4 mN/m
280 K, x2 = 0.087	8.7 ± 0.4 mN/m
280 K, x2 = 0.092	8.4 ± 0.4 mN/m
280 K, x2 = 0.115	8.5 ± 0.4 mN/m
280 K, x2 = 0.12	8.4 ± 0.4 mN/m
280 K, x2 = 0.121	8 ± 0.4 mN/m
280 K, x2 = 0.123	8.2 ± 0.4 mN/m
280 K, x2 = 0.124	8.2 ± 0.4 mN/m
280 K, x2 = 0.131	7.9 ± 0.4 mN/m
280 K, x2 = 0.141	8 ± 0.4 mN/m
280 K, x2 = 0.515	6.4 ± 0.4 mN/m
280 K, x2 = 0.588	6.5 ± 0.4 mN/m
280 K, x2 = 0.605	6.5 ± 0.4 mN/m
280 K, x2 = 0.648	6.8 ± 0.4 mN/m and 6.7 ± 0.4 mN/m
280 K, x2 = 0.662	6.8 ± 0.4 mN/m
280 K, x2 = 0.682	6.8 ± 0.4 mN/m
280 K, x2 = 0.697	7 ± 0.4 mN/m
280 K, x2 = 0.706	7.1 ± 0.4 mN/m
280 K, x2 = 0.729	7.1 ± 0.4 mN/m
280 K, x2 = 0.755	7.4 ± 0.4 mN/m
280 K, x2 = 0.775	7.4 ± 0.4 mN/m
280 K, x2 = 0.813	7.8 ± 0.4 mN/m
280 K, x2 = 0.826	7.8 ± 0.4 mN/m
280 K, x2 = 0.898	8.4 ± 0.4 mN/m
280 K, x2 = 0.931	8.8 ± 0.4 mN/m
280 K, x2 = 0.942	8.9 ± 0.4 mN/m
280 K, x2 = 0.968	9.1 ± 0.4 mN/m
290 K, x2 = 0.002	8.1 ± 0.4 mN/m
290 K, x2 = 0.003	8 ± 0.4 mN/m
290 K, x2 = 0.004	8 ± 0.4 mN/m
290 K, x2 = 0.005	7.9 ± 0.4 mN/m
290 K, x2 = 0.039	7.5 ± 0.4 mN/m
290 K, x2 = 0.065	7.2 ± 0.4 mN/m
290 K, x2 = 0.078	7 ± 0.4 mN/m
290 K, x2 = 0.081	7.2 ± 0.4 mN/m
290 K, x2 = 0.09	7.1 ± 0.4 mN/m
290 K, x2 = 0.095	6.9 ± 0.4 mN/m
290 K, x2 = 0.097	6.9 ± 0.4 mN/m
290 K, x2 = 0.114	6.6 ± 0.4 mN/m
290 K, x2 = 0.143	6.5 ± 0.4 mN/m
290 K, x2 = 0.156	6.3 ± 0.4 mN/m
290 K, x2 = 0.175	5.9 ± 0.4 mN/m
290 K, x2 = 0.185	5.9 ± 0.4 mN/m
290 K, x2 = 0.198	6 ± 0.4 mN/m
290 K, x2 = 0.209	5.7 ± 0.4 mN/m
290 K, x2 = 0.485	5 ± 0.4 mN/m
290 K, x2 = 0.506	4.9 ± 0.4 mN/m
290 K, x2 = 0.525	5 ± 0.4 mN/m
290 K, x2 = 0.539	5.1 ± 0.4 mN/m
290 K, x2 = 0.58	5.1 ± 0.4 mN/m
290 K, x2 = 0.596	5.1 ± 0.4 mN/m
290 K, x2 = 0.604	5.2 ± 0.4 mN/m
290 K, x2 = 0.648	5.6 ± 0.4 mN/m
290 K, x2 = 0.691	5.9 ± 0.4 mN/m
290 K, x2 = 0.768	6.1 ± 0.4 mN/m
290 K, x2 = 0.805	6.4 ± 0.4 mN/m
290 K, x2 = 0.896	7 ± 0.4 mN/m
290 K, x2 = 0.917	7.3 ± 0.4 mN/m
290 K, x2 = 0.925	7.4 ± 0.4 mN/m
290 K, x2 = 0.975	7.7 ± 0.4 mN/m
290 K, x2 = 0.986	7.9 ± 0.4 mN/m
290 K, x2 = 0.999	8.1 ± 0.4 mN/m
300 K, x2 = 0.02	6 ± 0.4 mN/m
300 K, x2 = 0.045	5.7 ± 0.4 mN/m
300 K, x2 = 0.087	5.4 ± 0.4 mN/m
300 K, x2 = 0.11	5.2 ± 0.4 mN/m
300 K, x2 = 0.12	5 ± 0.4 mN/m
300 K, x2 = 0.124	5 ± 0.4 mN/m
300 K, x2 = 0.149	4.6 ± 0.4 mN/m
300 K, x2 = 0.154	4.7 ± 0.4 mN/m
300 K, x2 = 0.22	4.1 ± 0.4 mN/m
300 K, x2 = 0.573	4 ± 0.4 mN/m
300 K, x2 = 0.682	4.5 ± 0.4 mN/m
300 K, x2 = 0.692	4.7 ± 0.4 mN/m
300 K, x2 = 0.703	4.7 ± 0.4 mN/m
300 K, x2 = 0.744	4.9 ± 0.4 mN/m
300 K, x2 = 0.748	5.1 ± 0.4 mN/m
300 K, x2 = 0.761	5 ± 0.4 mN/m
300 K, x2 = 0.771	5.1 ± 0.4 mN/m
300 K, x2 = 0.782	5.1 ± 0.4 mN/m
300 K, x2 = 0.79	5.2 ± 0.4 mN/m
300 K, x2 = 0.824	5.5 ± 0.4 mN/m
300 K, x2 = 0.834	5.4 ± 0.4 mN/m
300 K, x2 = 0.838	5.5 ± 0.4 mN/m
300 K, x2 = 0.852	5.6 ± 0.4 mN/m
300 K, x2 = 0.865	5.8 ± 0.4 mN/m
300 K, x2 = 0.881	5.8 ± 0.4 mN/m
300 K, x2 = 0.893	6 ± 0.4 mN/m
300 K, x2 = 0.897	5.9 ± 0.4 mN/m
300 K, x2 = 0.911	6 ± 0.4 mN/m
300 K, x2 = 0.918	6.2 ± 0.4 mN/m
300 K, x2 = 0.938	6.4 ± 0.4 mN/m
300 K, x2 = 0.982	6.8 ± 0.4 mN/m
300 K, x2 = 0.994	6.7 ± 0.4 mN/m
300 K, x2 = 0.999	6.9 ± 0.4 mN/m
